Experimental data from the supplement of paper PMC10307832.

Key:
Assay in all cases: relative viability (nuclei count vs DMSO), 5 days (fraction); higher = more cells survive
NCI-H1355 = tested on: NCI-H1355
Method in brief: (§1)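 Relative viability is defined as nuclei in treated wells over nuclei in vehicle wells. Duplicate plates were run and medians reported. Lung cancer cell lines in 1536-well plates were dosed by pin tool one day after seeding, with one drug or with a fixed anchor-drug dose plus five library-drug doses (not always all listed) in √10 steps, and nuclei were counted after 5 days.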

NCI-H322M = tested on: NCI-H322M
Method in brief: as §1

NCI-H1993 = tested on: NCI-H1993
Method in brief: as §1

NCI-H2342 = tested on: NCI-H2342
Method in brief: as §1

SK-MES-1 = tested on: SK-MES-1
Method in brief: as §1

HOP-62 = tested on: HOP-62
Method in brief: as §1

COR-L 105 = tested on: COR-L 105
Method in brief: as §1

NCI-H2228 = tested on: NCI-H2228
Method in brief: as §1

NCI-H1395 = tested on: NCI-H1395
Method in brief: as §1

NCI-H838 = tested on: NCI-H838
Method in brief: as §1

NCI-H1734 = tested on: NCI-H1734
Method in brief: as §1

NCI-H2170 = tested on: NCI-H2170
Method in brief: as §1

PC-14 = tested on: PC-14
Method in brief: as §1

NCI-H522 = tested on: NCI-H522
Method in brief: as §1

NCI-H2009 = tested on: NCI-H2009
Method in brief: as §1

NCI-H1755 = tested on: NCI-H1755
Method in brief: as §1

HARA = tested on: HARA
Method in brief: as §1

NCI-H2347 = tested on: NCI-H2347
Method in brief: as §1

EKVX = tested on: EKVX
Method in brief: as §1

UMC-11 = tested on: UMC-11
Method in brief: as §1

NCI-H1793 = tested on: NCI-H1793
Method in brief: as §1

NCI-H647 = tested on: NCI-H647
Method in brief: as §1

NCI-H358 = tested on: NCI-H358
Method in brief: as §1

COR-L23 = tested on: COR-L23
Method in brief: as §1

SMILES: COc1cc(N2CCC(C(N)=O)CC2)ccc1Nc1nc(N)c(Cl)c(Nc2ccccc2S(=O)(=O)C(C)C)n1 [HG-5-88-01] + O=C(CCCCCCC(=O)Nc1ccccc1)NO [Vorinostat] (partner 1 µM)
- relative viability (NCI-H1355; first compound 0.04 µM): 0.59
- relative viability (NCI-H1355; first compound 0.1265 µM): 0.62
- relative viability (NCI-H1355; first compound 0.4 µM): 0.626
- relative viability (NCI-H1355; first compound 1.265 µM): 0.587
- relative viability (NCI-H1355; first compound 4 µM): 0.399
- relative viability (NCI-H322M; first compound 0.04 µM): 0.864
- relative viability (NCI-H322M; first compound 0.1265 µM): 0.809
- relative viability (NCI-H322M; first compound 0.4 µM): 0.782
- relative viability (NCI-H322M; first compound 1.265 µM): 0.668
- relative viability (NCI-H322M; first compound 4 µM): 0.706
- relative viability (NCI-H1993; first compound 0.04 µM): 0.669
- relative viability (NCI-H1993; first compound 0.1265 µM): 0.976
- relative viability (NCI-H1993; first compound 0.4 µM): 0.721
- relative viability (NCI-H1993; first compound 4 µM): 0.644
- relative viability (NCI-H2342; first compound 0.04 µM): 0.654
- relative viability (NCI-H2342; first compound 0.1265 µM): 0.961
- relative viability (NCI-H2342; first compound 0.4 µM): 0.737
- relative viability (NCI-H2342; first compound 4 µM): 0.945
- relative viability (SK-MES-1; first compound 0.04 µM): 1.14
- relative viability (SK-MES-1; first compound 0.1265 µM): 1.03
- relative viability (SK-MES-1; first compound 0.4 µM): 1.1
- relative viability (SK-MES-1; first compound 1.265 µM): 0.979
- relative viability (SK-MES-1; first compound 4 µM): 1.21
- relative viability (HOP-62; first compound 0.04 µM): 0.579
- relative viability (HOP-62; first compound 0.1265 µM): 0.799
- relative viability (HOP-62; first compound 0.4 µM): 0.611
- relative viability (HOP-62; first compound 1.265 µM): 0.728
- relative viability (HOP-62; first compound 4 µM): 0.668
- relative viability (COR-L 105; first compound 0.04 µM): 0.849
- relative viability (COR-L 105; first compound 0.1265 µM): 0.722
- relative viability (COR-L 105; first compound 0.4 µM): 0.847
- relative viability (COR-L 105; first compound 1.265 µM): 0.639
- relative viability (COR-L 105; first compound 4 µM): 0.59
- relative viability (NCI-H2228; first compound 0.04 µM): 0.731
- relative viability (NCI-H2228; first compound 0.1265 µM): 0.421
- relative viability (NCI-H2228; first compound 0.4 µM): 0.3
- relative viability (NCI-H2228; first compound 1.265 µM): 0.348
- relative viability (NCI-H2228; first compound 4 µM): 0.379
- relative viability (NCI-H1395; first compound 0.04 µM): 0.69
- relative viability (NCI-H1395; first compound 0.1265 µM): 0.681
- relative viability (NCI-H1395; first compound 0.4 µM): 0.733
- relative viability (NCI-H1395; first compound 1.265 µM): 0.832
- relative viability (NCI-H1395; first compound 4 µM): 0.597
- relative viability (NCI-H838; first compound 0.04 µM): 0.745
- relative viability (NCI-H838; first compound 0.1265 µM): 0.707
- relative viability (NCI-H838; first compound 0.4 µM): 0.651
- relative viability (NCI-H838; first compound 1.265 µM): 0.596
- relative viability (NCI-H838; first compound 4 µM): 0.53
- relative viability (NCI-H1734; first compound 0.04 µM): 0.969
- relative viability (NCI-H1734; first compound 0.1265 µM): 0.871
- relative viability (NCI-H1734; first compound 0.4 µM): 0.833
- relative viability (NCI-H1734; first compound 1.265 µM): 0.773
- relative viability (NCI-H1734; first compound 4 µM): 0.795
- relative viability (NCI-H2170; first compound 0.04 µM): 0.837
- relative viability (NCI-H2170; first compound 0.1265 µM): 0.9
- relative viability (NCI-H2170; first compound 0.4 µM): 0.773
- relative viability (NCI-H2170; first compound 1.265 µM): 0.594
- relative viability (NCI-H2170; first compound 4 µM): 0.892
- relative viability (PC-14; first compound 0.04 µM): 0.813
- relative viability (PC-14; first compound 0.1265 µM): 0.759
- relative viability (PC-14; first compound 0.4 µM): 0.656
- relative viability (PC-14; first compound 1.265 µM): 0.261
- relative viability (PC-14; first compound 4 µM): 0.155
- relative viability (NCI-H522; first compound 0.04 µM): 0.923
- relative viability (NCI-H522; first compound 0.1265 µM): 0.855
- relative viability (NCI-H522; first compound 0.4 µM): 0.784
- relative viability (NCI-H522; first compound 1.265 µM): 0.667
- relative viability (NCI-H522; first compound 4 µM): 0.671
- relative viability (NCI-H2009; first compound 0.04 µM): 0.704
- relative viability (NCI-H2009; first compound 0.1265 µM): 0.796
- relative viability (NCI-H2009; first compound 0.4 µM): 0.694
- relative viability (NCI-H2009; first compound 1.265 µM): 0.616
- relative viability (NCI-H2009; first compound 4 µM): 0.647
- relative viability (NCI-H1755; first compound 0.04 µM): 0.79
- relative viability (NCI-H1755; first compound 0.1265 µM): 0.804
- relative viability (NCI-H1755; first compound 0.4 µM): 0.715
- relative viability (NCI-H1755; first compound 1.265 µM): 0.748
- relative viability (NCI-H1755; first compound 4 µM): 0.744
- relative viability (HARA; first compound 0.04 µM): 0.532
- relative viability (HARA; first compound 0.1265 µM): 0.526
- relative viability (HARA; first compound 0.4 µM): 0.585
- relative viability (HARA; first compound 1.265 µM): 0.577
- relative viability (HARA; first compound 4 µM): 0.507
- relative viability (NCI-H2347; first compound 0.04 µM): 0.52
- relative viability (NCI-H2347; first compound 0.1265 µM): 0.544
- relative viability (NCI-H2347; first compound 0.4 µM): 0.731
- relative viability (NCI-H2347; first compound 1.265 µM): 0.553
- relative viability (NCI-H2347; first compound 4 µM): 0.577
- relative viability (EKVX; first compound 0.04 µM): 0.789
- relative viability (EKVX; first compound 0.1265 µM): 0.775
- relative viability (EKVX; first compound 0.4 µM): 0.712
- relative viability (EKVX; first compound 4 µM): 0.63
- relative viability (UMC-11; first compound 0.04 µM): 0.437
- relative viability (UMC-11; first compound 0.1265 µM): 0.442
- relative viability (UMC-11; first compound 0.4 µM): 0.354
- relative viability (UMC-11; first compound 1.265 µM): 0.33
- relative viability (UMC-11; first compound 4 µM): 0.288
- relative viability (NCI-H1793; first compound 0.04 µM): 0.648
- relative viability (NCI-H1793; first compound 0.1265 µM): 0.95
- relative viability (NCI-H1793; first compound 0.4 µM): 0.725
- relative viability (NCI-H1793; first compound 1.265 µM): 0.575
- relative viability (NCI-H1793; first compound 4 µM): 0.53
- relative viability (NCI-H647; first compound 0.04 µM): 0.522
- relative viability (NCI-H647; first compound 0.1265 µM): 0.813
- relative viability (NCI-H647; first compound 1.265 µM): 0.774
- relative viability (NCI-H647; first compound 4 µM): 0.86
- relative viability (NCI-H358; first compound 0.04 µM): 0.666
- relative viability (NCI-H358; first compound 0.1265 µM): 0.602
- relative viability (NCI-H358; first compound 0.4 µM): 0.544
- relative viability (NCI-H358; first compound 1.265 µM): 0.155
- relative viability (NCI-H358; first compound 4 µM): 0.182
- relative viability (COR-L23; first compound 0.04 µM): 0.496
- relative viability (COR-L23; first compound 0.1265 µM): 0.381
- relative viability (COR-L23; first compound 0.4 µM): 0.355
- relative viability (COR-L23; first compound 1.265 µM): 0.364
- relative viability (COR-L23; first compound 4 µM): 0.227
